# US6740648B2, “Treatment of pulmonary hypertension” (Warner-Lambert Company, priority 2000, dated 2004)
# Entries after “also recorded” stand apart in the source; their conditions may differ. Counter-ions that a name gives are not always drawn.
# Tests used:
# [1] = tested on: AVP-induced dermal vasoconstriction; assay: AVP-induced dermal vasoconstriction in Phase I subjects; format: in vivo, human; conditions: 50 mg IV
# [2] = Example 3: placebo-controlled study of YM087 40 mg IV twice, relief of pulmonary congestion in exacerbation of congestive heart failure; format: in vivo, human; conditions: FIG. 8; listed as conivaptan, hydrochloride
# Experimental: Patient who meets the inclusion criteria will then be randomized to 1 of 2 treatment group: double-blind treatment phase. […] Patients were administered 100% oxygen for 5 to 10 minutes, and blood gases were measured for assessment of A-a gradient. A baseline respiratory rate is measured 5 minutes prior to administration of study medication (RR must be ≧22 to meet inclusion criteria). […] All patients received usual care at the discretion of the investigator including IV loop diuretics, oxygen, morphine, and IV vasodilators. All patients were administered IV furosemide 20 mg as a minimum dose initially. No additional doses of diuretics should be administered for at least 2 hours after administration of the first dose of study medication; the dose was subsequently adjusted as needed based on the patient's clinical status at the discretion of the investigator. […] Body weight was assessed prior the second dose of study medication. […] During the study, the patient should be receiving the same % oxygen for all respiratory rate and A-a gradient assessments. […] Clinical laboratory parameters were assessed 8 and 24 hours after the first dose of study medication. Serum electrolytes, BUN, and creatinine were measured 4, 8, 12, 18, and 24 hours after administration of the first dose of study medication.
# [3] = Safety and tolerability in Phase I studies (approximately 250 subjects); format: in vivo, human
# [4] = Example 2: placebo-controlled study of YM087 20 mg IV twice, relief of pulmonary congestion in acute decompensated heart failure; format: in vivo, human; conditions: listed as conivaptan, hydrochloride
# Experimental: The trial explores the effect on relief of pulmonary congestion in patients with a history of NYHA Class II-IV heart failure hospitalized in a monitored unit for acute decompensated heart failure. Patients may be on background therapy optionally with ACE-inhibitors, diuretics, digoxin, and β-blockers as long as these medications (excepting diuretics) were initiated prior to admission. On arrival to the hospital, the patient was assessed for enrollment criteria. If the criteria are met, consent was obtained and the patient enrolled. Patients needing treatment with a parenteral inotropic agent (eg milrinone; dobutamine) or who are intubated are excluded. Respiratory rate will be measured. Clinical laboratory parameters are measured if not assessed within 2 hours of screening. Once consented, the patient's clinical distress was assessed by vital signs, the Acute Heart Failure Score, the Physician/Study Coordinator Clinical Assessment Scale for patient's respiratory and global status, and the Patient Visual Analog Scale for respiratory and global status. […] The baseline respiratory rate was measured 5 minutes prior to administration of study medication (must be ≧24 to meet inclusion criteria). […] Clinical laboratory parameters were assessed 8 and 24 hours after start of the first infusion of study medication. […]
# V2-receptor = target: T1, V2-receptor (Homo sapiens, UniProt P30518); assay: Aquaretic action in normal subjects (evidence of V2-receptor antagonism); format: in vivo; conditions: for Dose at which aquaretic action with decrease in urine osmolarity starts: normal subjects
# T1 construct: from tissue; host or cells: healthy human subjects in vivo (renal effect)
# T1 sequence (P30518 whole entry): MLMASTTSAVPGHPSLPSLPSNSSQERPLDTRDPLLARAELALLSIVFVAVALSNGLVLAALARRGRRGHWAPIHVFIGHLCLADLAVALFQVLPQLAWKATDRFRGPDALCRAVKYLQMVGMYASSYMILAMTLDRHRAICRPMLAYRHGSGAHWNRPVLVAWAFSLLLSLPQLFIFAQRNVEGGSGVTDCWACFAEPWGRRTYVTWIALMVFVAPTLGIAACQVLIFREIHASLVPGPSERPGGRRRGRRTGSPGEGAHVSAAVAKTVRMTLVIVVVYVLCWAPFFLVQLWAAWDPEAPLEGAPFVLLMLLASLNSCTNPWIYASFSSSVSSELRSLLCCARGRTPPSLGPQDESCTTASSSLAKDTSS
# [5] = Example 1: double-blind, placebo-controlled IV dose-response study of cardiopulmonary hemodynamics in patients with Class III/IV heart failure; format: in vivo, human
# Experimental: Patients must be receiving background therapy of diuretics, ACE inhibitors, and optionally digoxin and/or β-blocker; patients are stratified as to whether they are receiving concomitant β-blocker treatment. Patients should take their daily dose of concomitant heart failure medications within 2 hours of catheter insertion. No additional doses of background heart failure medications should be administered during the study treatment phase. After insertion of a balloon-flotation pulmonary artery catheter, serial measurements are obtained over an 8-to 18-hour baseline and stabilization period.
# Hemodynamic parameters and vital signs are measured at baseline during the 2 hours prior to drug administration and 30 minutes, 1, 2, 3, 4, 6, 8, and 12 hours after start of the IV infusion. A urethral catheter is placed and urine output is measured hourly for 2 hours prior until 12 hours post-study drug administration. Fluid intake is restricted to 250 mL every 2 hours (except at time of IV infusion) from time of insertion of a Swan-Ganz catheter and throughout the treatment period. […] Serum electrolytes, BUN, creatinine, and serum osmolality are measured at baseline and 4 and 12 hours post treatment. Clinical laboratory and vasopressin plasma levels are measured at baseline and 12 hours post-drug administration. A numeric rating scale for assessing dyspnea is administered at baseline and 12 hours after study drug administration.
# Patients refrain from taking concomitant heart failure medications during the 12-hour treatment period. Patients are stratified as to whether they are receiving concomitant treatment with a β-blocker. Hemodynamic parameters (cardiac output, intrapulmonary and systemic pressures) and vital signs are measured at 0.5, 1, 2, 3, 4, 6, 8, and 12 hours after start of the IV infusion. Clinical laboratory and vasopressin plasma levels are measured 12 hours postdose. […] Serum electrolytes, BUN, creatinine and serum osmolality are measured at 4 and 12 hours posttreatment. Hourly urine output measurements are obtained during the entire 12-hour treatment phase. The numeric rating scale for assessing dyspnea is administered 12 hours postadministration of study medication.
# For this study, hemodynamic efficacy parameters of PCWP, CI, SVR, and PVR are evaluated in terms of their response profile. The response profile is assessed in terms of peak change, and area under the curve (AUC) delimited by the parameter change from baseline and measurement times. The peak change is defined as the maximum change from baseline, within the 3 to 6 hours after treatment administration, in the hemodynamic parameter of interest. The baseline value is considered the last acceptable measurement taken before treatment administration. The AUC is determined using the “linear trapezoidal rule,” which delimits areas of each trapezoid by: two points on the graph of change from baseline against time, perpendiculars from the points to the X-axis, and the X-axis are summed up to get AUC. If measurements are missing at certain times, the AUC are calculated using all other available observations. Dose response over the treatment groups are assessed for selected measures.
# The secondary parameter of urine output is summarized at baseline, and each collection time. In addition, a numeric rating scale is used for assessing dyspnea. The corresponding change from baseline for these parameters is summarized. Descriptive summaries include mean, standard error, median, minimum, and maximum. Other concurrently measured hemodynamic parameters (ie, RA, PAs, PAd, cuff SBP, cuff DBP, calculated MAP, and HR) is also summarized.
# Hemodynamic assessments are obtained at baseline and at 0.5, 1, 2, 3, 4, 6, 8, and 12 hours after administration of study medication.
# [6] = tested on: AVP-induced platelet aggregation; assay: AVP-induced platelet aggregation in Phase I subjects (evidence of V1A antagonist activity); format: in vivo, human; conditions: 20 mg/day orally or 2.5 mg IV
# [7] = approximately 250 subjects treated
smiles,measurement,setting,value
"Cc1nc2c([nH]1)-c1ccccc1N(C(=O)c1ccc(NC(=O)c3ccccc3-c3ccccc3)cc1)CC2 [YM087, N-[4-(2-methyl-4,5,6-tetrahydroimidazo[4,5-d][1]benzazepin-6-ylcarbonyl)phenyl]biphenyl-2-carboxamide hydrochloride]",Inhibition of AVP-induced dermal vasoconstriction,[1],Total inhibition
same,Alveolar-arterial gradient compared to placebo,[2],improved; also recorded: apparent improvement
same,Tolerability of aquaretic effects at higher doses,"[3]; 120 mg QD or 60 mg BID orally, or 50 mg IV",too uncomfortable to be tolerable
same,Drug-related serious adverse events,[3]; [7],no drug-related serious adverse events were reported
same,Major safety concerns,[3]; [7],no major safety concerns were identified
same,Urinary osmolarity,[3]; at higher doses,decreased
same,Plasma osmolarity,"[3]; at higher doses, with or without an increase in plasma sodium",increased
same,Biochemical or hematological laboratory parameters,"[3]; human, in vivo",No drug-related trend
same,Most frequent adverse events regardless of treatment association,"[3]; human, in vivo",mild or moderate thirst and mild headache
same,Vital signs (blood pressure and heart rate),"[3]; human, in vivo",unaffected
same,Other adverse events,"[3]; human, in vivo, hydrochloride","flushes, a sensation of cold extremities, abdominal complaints, abnormal stools, syncope, dizziness, palpitations, and postural hypotension"
same,Grand mal seizure,"[3]; one patient with severe heart failure, 40 mg BID",grand mal seizure that was possibly related to YM087
same,Leukopenia / decrease in white blood cell counts,"[3]; three subjects who received YM087, one who received placebo, hydrochloride","minor, reversible decrease in white blood cell counts; also recorded: minor, reversible leukopenia"
same,Patient visual analog scale of respiratory status,[4]; FIG. 6,improved respiratory status; also recorded: improvement
same,Patient numeric rating scale of respiratory status,[4]; FIG. 7,improved respiratory status; also recorded: improvement
same,Duration of increased urine production rate postdosing,V2-receptor; IV 50 mg/day,≤ 6 h
same,Duration of increased urine production rate postdosing,V2-receptor; IV doses up to 250 μg/kg,up to 3 hours
same,Dose at which aquaretic action with decrease in urine osmolarity starts,V2-receptor; IV,0.05 mg/kg
same,Dose at which aquaretic action with decrease in urine osmolarity starts,V2-receptor; oral,15 mg
same,Reduction of right atrial pressure (RAP),"[5]; 40 mg IV dose, FIG. 1",≤ 3 mm Hg
same,Reduction of pulmonary artery systolic pressure (PAs),"[5]; 40 mg IV dose, FIG. 2",≤ 4 mm Hg
same,Right atrial pressure (RAP),[5]; FIG. 1,reduce
same,Pulmonary artery systolic pressure (PAS),[5]; FIG. 2,reduce
same,Mean arterial pressure (MAP),[5]; FIG. 3,no effect
same,Systolic blood pressure (SBP),[5]; FIG. 4,no effect
same,Systemic hemodynamics,"[5]; human, in vivo",no effect
same,Changes in inspiratory crackles compared to placebo,"[5]; post IV dose of 10, 20, 40 mg, FIG. 9",fewer patients on conivaptan had worsened inspiratory crackles
same,Inhibition of AVP-induced platelet aggregation,[6],Inhibition
